Measurements published in patent US8580829B2 (Boehringer Ingelheim International GmbH, priority 2010, dated 2013).

Experiments:
[1] = test system: synthesis of LTB4 in human whole blood; assay: human whole blood LTB4 production inhibition assay; assay type: cell-based; details: Homo sapiens, heparinized human whole blood, calcimycin 20 μM; read-out: hWB LTB4 IC50
Summary of the method: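 LTB4 levels in plasma were measured by antibody-based HTRF after heparinized human whole blood, pretreated with compound (15 min, 37° C), was challenged with 20 μM calcimycin for 30 min at 37° C.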

[2] = molecular target: T1, recombinant human FLAP protein (Homo sapiens, UniProt P20292); assay: FLAP binding assay (Scintillation Proximity Assay, displacement of [125I]L-691,831); details: recombinant human FLAP membranes, [125I]L-691,831 probe; read-out: FLAP SPA IC50
T1 construct: made in house; host or cells: Sf9 insect cells (100,000 x g membrane fraction)
T1 sequence (P20292 1-161): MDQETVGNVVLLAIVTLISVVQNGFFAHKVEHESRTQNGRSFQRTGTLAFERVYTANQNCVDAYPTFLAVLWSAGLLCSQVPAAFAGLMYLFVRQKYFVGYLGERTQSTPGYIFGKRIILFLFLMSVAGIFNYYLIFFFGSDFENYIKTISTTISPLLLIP
Summary of the method: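 WGA scintillation proximity beads were stirred 1 h with 5 μg of FLAP-containing membrane protein. The membranes came from baculovirus Sf9 cells, Dounce-lysed and spun to a 100,000×g pellet in buffer at pH 7.5.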

In the case of `Nc1ncc(-c2ccc(C3(c4noc(-c5cccnc5)n4)CCOCC3)cc2)cn1` [Example 146, 5-{4-[4-(5-Pyridin-3-yl-1,2,4-oxadiazol-3-yl)-tetrahydro-pyran-4-yl]-phenyl}-pyrimidin-2-ylamine], the IC50 [1] is reported as 840 nM and the IC50 [2] is reported as 27 nM.

Compound `Nc1ncc(-c2ccc(C3(c4noc(-c5ccncc5)n4)CCOCC3)cc2)cn1` [Example 147, 5-{4-[4-(5-Pyridin-4-yl-1,2,4-oxadiazol-3-yl)-tetrahydro-pyran-4-yl]-phenyl}-pyrimidin-2-ylamine] has an IC50 [1] of 1700 nM and an IC50 [2] of 33 nM.

For `Cc1cc(-c2nc(C3(c4ccc(-c5cnc(N)nc5)cc4)CCOCC3)no2)n(C)n1` [Example 148, 5-(4-{4-[5-(2,5-Dimethyl-2H-pyrazol-3-yl)-1,2,4-oxadiazol-3-yl]-tetrahydro-pyran-4-yl}-phenyl)-pyrimidin-2-ylamine], the IC50 [1] was 3300 nM and the IC50 [2] was 46 nM.

For `Nc1ncc(-c2ccc(C3(c4noc(-c5ccccc5)n4)CCOCC3)cc2)cn1` [Example 149, 5-{4-[4-(5-Phenyl-1,2,4-oxadiazol-3-yl)-tetrahydro-pyran-yl]-phenyl}-pyrimidin-2-ylamine], the IC50 [1] was > 5000 nM and the IC50 [2] was 15 nM.

`Nc1ncc(-c2ccc(C3(c4noc(Cc5ccccc5)n4)CCOCC3)cc2)cn1` [Example 150, 5-{4-[4-(5-Benzyl-1,2,4-oxadiazol-3-yl)-tetrahydro-pyran-4-yl]-phenyl}-pyrimidin-2-ylamine] was tested, and the IC50 [1] was > 5000 nM and the IC50 [2] was 180 nM.

With `Nc1ncc(-c2ccc(C3(c4noc(COCc5ccccc5)n4)CCOCC3)cc2)cn1` [Example 151, 5-{4-[4-(5-Benzyloxymethyl-1,2,4-oxadiazol-3-yl)-tetrahydro-pyran-4-yl]-phenyl}-pyrimidin-2-ylamine] the IC50 [1] was > 5000 nM and the IC50 [2] was 210 nM.

In the case of `Cc1ccc(-c2nc(C3(c4ccc(-c5cnc(N)nc5)cc4)CCC3)no2)cn1` [Example 152, 5-(4-{1-[5-(6-Methyl-pyridin-3-yl)-1,2,4-oxadiazol-3-yl]-cyclobutyl}-phenyl)-pyrimidin-2-ylamine], the IC50 [1] is reported as 210 nM and the IC50 [2] is reported as 3.5 nM.

Compound `Nc1ncc(-c2ccc(C3(c4noc(-c5c[nH]cn5)n4)CCC3)cc2)cn1` [Example 153, 5-(4-{1-[5-(1H-Imidazol-4-yl)-1,2,4-oxadiazol-3-yl]-cyclobutyl}-phenyl)-pyrimidin-2-ylamine] has an IC50 [1] of 270 nM and an IC50 [2] of 2.5 nM.

`Cc1ccc(-c2nc(C3(c4ccc(-c5cnc(N)nc5)cc4)CCCCC3)no2)cn1` [Example 154, 5-(4-{1-[5-(6-Methyl-pyridin-3-yl)-1,2,4-oxadiazol-3-yl]-cyclohexyl}-phenyl)-pyrimidin-2-ylamine] gave an IC50 [1] of 810 nM and an IC50 [2] of 1.7 nM.

With `Cc1ccc(-c2nc(C3(c4ccc(-c5cnc(N)nc5)cc4)CCCC3)no2)cn1` [Example 155, 5-(4-{1-[5-(6-Methyl-pyridin-3-yl)-1,2,4-oxadiazol-3-yl]-cyclopentyl}-phenyl)-pyrimidin-2-ylamine] the IC50 [1] was 400 nM and the IC50 [2] was 2.8 nM.

`Nc1ncc(-c2ccc(C3(c4noc(-c5nc[nH]n5)n4)CCC3)cc2)cn1` [Example 156, 5-(4-{1-[5-(2H-1,2,4-Triazol-3-yl)-1,2,4-oxadiazol-3-yl]-cyclobutyl}-phenyl)-pyrimidin-2-ylamine] was tested, and the IC50 [1] was > 5000 nM and the IC50 [2] was 13 nM.

Compound `Cc1cc(-c2nc(C3(c4ccc(-c5cnc(N)nc5)cc4)CCC3)no2)on1` [Example 157] has an IC50 [1] of 690 nM and an IC50 [2] of 4.1 nM.

`Nc1ncc(-c2ccc(C3(c4noc(-c5cnccn5)n4)CCC3)cc2)cn1` [Example 158, 5-{4-[1-(5-Pyrazin-2-yl-1,2,4-oxadiazol-3-yl)-cyclobutyl]-phenyl}-pyrimidin-2-ylamine] showed an IC50 [1] of 360 nM and an IC50 [2] of 5.7 nM.

`Nc1ncc(-c2ccc(C3(c4noc(-c5cncnc5)n4)CCC3)cc2)cn1` [Example 159, 5-{4-[1-(5-Pyrimidin-5-yl-1,2,4-oxadiazol-3-yl)-cyclobutyl]-phenyl}-pyrimidin-2-ylamine] gave an IC50 [1] of 340 nM and an IC50 [2] of 6 nM.

With `Nc1ncc(-c2ccc(C3(c4noc(-c5ccnnc5)n4)CCC3)cc2)cn1` [Example 160, 5-{4-[1-(5-Pyridazin-4-yl-1,2,4-oxadiazol-3-yl)-cyclobutyl]-phenyl}-pyrimidin-2-ylamine] the IC50 [1] was 240 nM and the IC50 [2] was 6.2 nM.

`Cc1cc(-c2nc(C3(c4ccc(-c5cnc(N)nc5)cc4)CCC3)no2)n(C)n1` [Example 161, 5-(4-{1-[5-(2,5-Dimethyl-2H-pyrazol-3-yl)-1,2,4-oxadiazol-3-yl]-cyclobutyl}-phenyl)-pyrimidin-2-ylamine] gave an IC50 [1] of 860 nM and an IC50 [2] of 6.6 nM.

Compound `CCn1nc(C)cc1-c1nc(C2(c3ccc(-c4cnc(N)nc4)cc3)CCC2)no1` [Example 162, 5-(4-{1-[5-(2-Ethyl-5-methyl-2H-pyrazol-3-yl)-1,2,4-oxadiazol-3-yl]-cyclobutyl}-phenyl)-pyrimidin-2-ylamine] has an IC50 [1] of 1000 nM and an IC50 [2] of 6.4 nM.

Compound `Cc1nocc1-c1nc(C2(c3ccc(-c4cnc(N)nc4)cc3)CCC2)no1` [Example 163, 5-(4-{1-[5-(3-Methyl-isoxazol-4-yl)-1,2,4-oxadiazol-3-yl]-cyclobutyl}-phenyl)-pyrimidin-2-ylamine] has an IC50 [1] of 450 nM and an IC50 [2] of 4 nM.

For `Cc1noc(C)c1-c1nc(C2(c3ccc(-c4cnc(N)nc4)cc3)CCC2)no1` [Example 164, 5-(4-{1-[5-(3,5-Dimethyl-isoxazol-4-yl)-1,2,4-oxadiazol-3-yl]-cyclobutyl}-phenyl)-pyrimidin-2-ylamine], the IC50 [1] was 570 nM and the IC50 [2] was 5.5 nM.

`Cc1ncc(-c2nc(C3(c4ccc(-c5cnc(N)nc5)cc4)CCC3)no2)cn1` [Example 165, 5-(4-{1-[5-(2-Methyl-pyrimidin-5-yl)-1,2,4-oxadiazol-3-yl]-cyclobutyl}-phenyl)-pyrimidin-2-ylamine] was tested, and the IC50 [1] was 450 nM and the IC50 [2] was 6 nM.

`Cc1ncccc1-c1nc(C2(c3ccc(-c4cnc(N)nc4)cc3)CCC2)no1` [Example 167, 5-(4-{1-[5-(2-Methyl-pyridin-3-yl)-1,2,4-oxadiazol-3-yl]-cyclobutyl}-phenyl)-pyrimidin-2-ylamine] was tested, and the IC50 [1] was 660 nM and the IC50 [2] was 5.1 nM.

`COc1ccncc1-c1nc(C2(c3ccc(-c4cnc(N)nc4)cc3)CCC2)no1` [Example 168, 5-(4-{1-[5-(4-Methoxy-pyridin-3-yl)-1,2,4-oxadiazol-3-yl]-cyclobutyl}-phenyl)-pyrimidin-2-ylamine] showed an IC50 [1] of 230 nM and an IC50 [2] of 5.5 nM.

In the case of `Nc1ncc(-c2ccc(C3(c4noc(-c5cccnc5Cl)n4)CCC3)cc2)cn1` [Example 169, 5-(4-{1-[5-(2-Chloro-pyridin-3-yl)-1,2,4-oxadiazol-3-yl]-cyclobutyl}-phenyl)-pyrimidin-2-ylamine], the IC50 [1] is reported as 130 nM and the IC50 [2] is reported as 2.1 nM.

`COC(=O)c1ccc(-c2nc(C3(c4ccc(-c5cnc(N)nc5)cc4)CCC3)no2)cn1` [Example 170, 5-(3-{1-[4-(2-Amino-pyrimidin-5-yl)-phenyl]-cyclobutyl}-1,2,4-oxadiazol-5-yl)-pyridine-2-carboxylic acid methyl ester] showed an IC50 [1] of 390 nM and an IC50 [2] of 2.9 nM.

Work on `Nc1ncc(-c2ccc(C3(c4noc(-c5ccncn5)n4)CCC3)cc2)cn1` [Example 171, 5-{4-[1-(5-Pyrimidin-4-yl-1,2,4-oxadiazol-3-yl)-cyclobutyl]-phenyl}-pyrimidin-2-ylamine] yielded an IC50 [1] of 820 nM and an IC50 [2] of 14 nM.

Work on `CC(C)(O)c1ccc(-c2nc(C3(c4ccc(-c5cnc(N)nc5)cc4)CCC3)no2)cn1` [Example 172] yielded an IC50 [1] of 260 nM and an IC50 [2] of 4.3 nM.

For `Nc1ncc(-c2ccc(C3(c4noc(-c5ccc[nH]c5=O)n4)CCC3)cc2)cn1` [Example 173, 3-(3-{1-[4-(2-amino-pyrimidin-5-yl)-phenyl]-cyclobutyl}-1,2,4-oxadiazol-5-yl)-1H-pyridin-2-one], the IC50 [1] was > 5000 nM and the IC50 [2] was 2.9 nM.

Compound `COc1cc(-c2nc(C3(c4ccc(-c5cnc(N)nc5)cc4)CCC3)no2)ccn1` [Example 174, 5-(4-{1-[5-(2-Methoxy-pyridin-4-yl)-1,2,4-oxadiazol-3-yl]-cyclobutyl}-phenyl)-pyrimidin-2-ylamine] has an IC50 [1] of 510 nM and an IC50 [2] of 5.3 nM.

`Nc1ncc(-c2ccc(C3(c4noc(-c5cn[nH]c5)n4)CCC3)cc2)cn1` [Example 175, 5-(4-{1-[5-(1H-Pyrazol-4-yl)-1,2,4-oxadiazol-3-yl]-cyclobutyl}-phenyl)-pyrimidin-2-ylamine] gave an IC50 [1] of 110 nM and an IC50 [2] of 2.3 nM.

For `Cn1cncc1-c1nc(C2(c3ccc(-c4cnc(N)nc4)cc3)CCC2)no1` [Example 176, 5-(4-{1-[5-(3-Methyl-3H-imidazol-4-yl)-1,2,4-oxadiazol-3-yl]-cyclobutyl}-phenyl)-pyrimidin-2-ylamine], the IC50 [1] was 410 nM and the IC50 [2] was 5.6 nM.

`NC(=O)c1nc(C2(c3ccc(-c4cnc(N)nc4)cc3)CCC2)no1` [Example 177, 3-{1-[4-(2-Amino-pyrimidin-5-yl)-phenyl]-cyclobutyl}-1,2,4-oxadiazole-5-carboxylic acid amide] was tested, and the IC50 [1] was 1300 nM and the IC50 [2] was 98 nM.

`Cc1ccc(C(=O)Nc2nc(C3(c4ccc(-c5cnc(N)nc5)cc4)CCC3)no2)cn1` [Example 178, N-(3-{1-[4-(2-Amino-pyrimidin-5-yl)-phenyl]-cyclobutyl}-1,2,4-oxadiazol-5-yl)-6-methyl-nicotinamide] was tested, and the IC50 [1] was > 5000 nM and the IC50 [2] was 61 nM.

`Nc1ncc(-c2ccc(C3(c4noc(-c5cccnc5N5CCOCC5)n4)CCC3)cc2)cn1` [Example 179, 5-(4-{1-[5-(2-Morpholin-4-yl-pyridin-3-yl)-1,2,4-oxadiazol-3-yl]-cyclobutyl}-phenyl)-pyrimidin-2-ylamine] gave an IC50 [1] of 1400 nM and an IC50 [2] of 12 nM.
